Source: ChEMBL document CHEMBL3046559, “Sterile oat (Avena sterilis L.) cross-resistance profile to ACCase-inhibiting herbicides in Greece” (2012)

The molecules below were run on Avena sterilis (assay: Resistance index, ratio of GR50 for Avena sterilis accession P02 to GR50 for Avena sterilis accession P10S).
Type: functional
With `COC(=O)C(C)Oc1ccc(Oc2ccc(Cl)cc2Cl)cc1` (centres undefined) [DICLOFOP-METHYL] the Ratio was >50. `CCOC(=O)[C@@H](C)Oc1ccc(Oc2nc3ccc(Cl)cc3o2)cc1` [FENOXAPROP-P-ETHYL] gave a Ratio of 133.

What follows are molecules tested on Avena sterilis (assay: Resistance index, ratio of GR50 for Avena sterilis accession P05 to GR50 for Avena sterilis accession P10S).
Type: functional
In the case of `COC(=O)C(C)Oc1ccc(Oc2ccc(Cl)cc2Cl)cc1` (centres undefined) [DICLOFOP-METHYL], the Ratio is reported as 10. Molecule `CCOC(=O)[C@@H](C)Oc1ccc(Oc2nc3ccc(Cl)cc3o2)cc1` [FENOXAPROP-P-ETHYL] has a Ratio of 12.

What follows are molecules tested on Avena sterilis (assay: Resistance index, ratio of GR50 for Avena sterilis accession P06S to GR50 for Avena sterilis accession P10S).
Type: functional
`COC(=O)C(C)Oc1ccc(Oc2ccc(Cl)cc2Cl)cc1` (centres undefined) [DICLOFOP-METHYL] was tested, and the Ratio was 1.1. Work on `CCOC(=O)[C@@H](C)Oc1ccc(Oc2nc3ccc(Cl)cc3o2)cc1` [FENOXAPROP-P-ETHYL] yielded a Ratio of 1.1.

Each molecule was assayed on Avena sterilis (assay: Resistance index, ratio of GR50 for Avena sterilis accession P12 to GR50 for Avena sterilis accession P10S).
Type: functional
For `COC(=O)C(C)Oc1ccc(Oc2ccc(Cl)cc2Cl)cc1` (centres undefined) [DICLOFOP-METHYL], the Ratio was >50. In the case of `CCOC(=O)[C@@H](C)Oc1ccc(Oc2nc3ccc(Cl)cc3o2)cc1` [FENOXAPROP-P-ETHYL], the Ratio is reported as 83.

What follows are molecules tested on Avena sterilis (assay: Resistance index, ratio of GR50 for Avena sterilis accession P20 to GR50 for Avena sterilis accession P10S).
Type: functional
For `COC(=O)C(C)Oc1ccc(Oc2ccc(Cl)cc2Cl)cc1` (centres undefined) [DICLOFOP-METHYL], the Ratio was >50. For `CCOC(=O)[C@@H](C)Oc1ccc(Oc2nc3ccc(Cl)cc3o2)cc1` [FENOXAPROP-P-ETHYL], the Ratio was >165.

Each molecule was assayed on Avena sterilis (assay: Resistance index, ratio of GR50 for Avena sterilis accession P09 to GR50 for Avena sterilis accession P10S).
Type: functional
In the case of `COC(=O)C(C)Oc1ccc(Oc2ccc(Cl)cc2Cl)cc1` (centres undefined) [DICLOFOP-METHYL], the Ratio is reported as 28. For `CCOC(=O)[C@@H](C)Oc1ccc(Oc2nc3ccc(Cl)cc3o2)cc1` [FENOXAPROP-P-ETHYL], the Ratio was 136.

Each molecule was assayed on Avena sterilis (assay: Resistance index, ratio of GR50 for Avena sterilis accession P13S to GR50 for Avena sterilis accession P10S).
Type: functional
With `COC(=O)C(C)Oc1ccc(Oc2ccc(Cl)cc2Cl)cc1` (centres undefined) [DICLOFOP-METHYL] the Ratio was 1. `CCOC(=O)[C@@H](C)Oc1ccc(Oc2nc3ccc(Cl)cc3o2)cc1` [FENOXAPROP-P-ETHYL] gave a Ratio of 1.1.

Each molecule was assayed on Avena sterilis (assay: Resistance index, ratio of GR50 for Avena sterilis accession P19S to GR50 for Avena sterilis accession P10S).
Type: functional
`COC(=O)C(C)Oc1ccc(Oc2ccc(Cl)cc2Cl)cc1` (centres undefined) [DICLOFOP-METHYL] showed a Ratio of 0.9. For `CCOC(=O)[C@@H](C)Oc1ccc(Oc2nc3ccc(Cl)cc3o2)cc1` [FENOXAPROP-P-ETHYL], the Ratio was 1.9.

These molecules were tested on Avena sterilis (assay: Resistance index, ratio of GR50 for Avena sterilis accession P17 to GR50 for Avena sterilis accession P10S).
Type: functional
Molecule `COC(=O)C(C)Oc1ccc(Oc2ccc(Cl)cc2Cl)cc1` (centres undefined) [DICLOFOP-METHYL] has a Ratio of 17. In the case of `CCOC(=O)[C@@H](C)Oc1ccc(Oc2nc3ccc(Cl)cc3o2)cc1` [FENOXAPROP-P-ETHYL], the Ratio is reported as 19.

The molecules below were run on Avena sterilis (assay: Herbicidal activity against Avena sterilis accession P14 assessed as weed survival at 8 times field recommended herbicide dose).
Type: functional
In the case of `COC(=O)C(C)Oc1ccc(Oc2ccc(Cl)cc2Cl)cc1` (centres undefined) [DICLOFOP-METHYL], the Survival is reported as 60%. `CCOC(=O)[C@@H](C)Oc1ccc(Oc2nc3ccc(Cl)cc3o2)cc1` [FENOXAPROP-P-ETHYL] gave a Survival of 27%.

What follows are molecules tested on Avena sterilis (assay: Herbicidal activity against Avena sterilis accession P14 assessed as weed survival at 16 times field recommended herbicide dose).
Type: functional
Work on `COC(=O)C(C)Oc1ccc(Oc2ccc(Cl)cc2Cl)cc1` (centres undefined) [DICLOFOP-METHYL] yielded a Survival of 50%. Molecule `CCOC(=O)[C@@H](C)Oc1ccc(Oc2nc3ccc(Cl)cc3o2)cc1` [FENOXAPROP-P-ETHYL] has a Survival of 20%.

What follows are molecules tested on Avena sterilis (assay: Herbicidal activity against Avena sterilis accession P21S assessed as induction of weed mortality).
Type: functional
`COC(=O)C(C)Oc1ccc(Oc2ccc(Cl)cc2Cl)cc1` (centres undefined) [DICLOFOP-METHYL] was tested, and the GR50 was 418 gAi/ha. Molecule `CCOC(=O)[C@@H](C)Oc1ccc(Oc2nc3ccc(Cl)cc3o2)cc1` [FENOXAPROP-P-ETHYL] has a GR50 of 18 gAi/ha.

The molecules below were run on Avena sterilis (assay: Resistance index, ratio of GR50 for Avena sterilis accession P16 to GR50 for Avena sterilis accession P10S).
Type: functional
Molecule `COC(=O)C(C)Oc1ccc(Oc2ccc(Cl)cc2Cl)cc1` (centres undefined) [DICLOFOP-METHYL] has a Ratio of 11. Molecule `CCOC(=O)[C@@H](C)Oc1ccc(Oc2nc3ccc(Cl)cc3o2)cc1` [FENOXAPROP-P-ETHYL] has a Ratio of 32.

Each molecule was assayed on Avena sterilis (assay: Resistance index, ratio of GR50 for Avena sterilis accession P15 to GR50 for Avena sterilis accession P10S).
Type: functional
`COC(=O)C(C)Oc1ccc(Oc2ccc(Cl)cc2Cl)cc1` (centres undefined) [DICLOFOP-METHYL] was tested, and the Ratio was >50. With `CCOC(=O)[C@@H](C)Oc1ccc(Oc2nc3ccc(Cl)cc3o2)cc1` [FENOXAPROP-P-ETHYL] the Ratio was 92.

What follows are molecules tested on Avena sterilis (assay: Herbicidal activity against Avena sterilis accession P13S assessed as weed survival at 1/16 times field recommended herbicide dose).
Type: functional
For `COC(=O)C(C)Oc1ccc(Oc2ccc(Cl)cc2Cl)cc1` (centres undefined) [DICLOFOP-METHYL], the Survival was 90%. `CCOC(=O)[C@@H](C)Oc1ccc(Oc2nc3ccc(Cl)cc3o2)cc1` [FENOXAPROP-P-ETHYL] was tested, and the Survival was 80%.

The molecules below were run on Avena sterilis (assay: Resistance index, ratio of GR50 for Avena sterilis accession P11 to GR50 for Avena sterilis accession P10S).
Type: functional
In the case of `COC(=O)C(C)Oc1ccc(Oc2ccc(Cl)cc2Cl)cc1` (centres undefined) [DICLOFOP-METHYL], the Ratio is reported as >50. With `CCOC(=O)[C@@H](C)Oc1ccc(Oc2nc3ccc(Cl)cc3o2)cc1` [FENOXAPROP-P-ETHYL] the Ratio was 145.

These molecules were tested on Avena sterilis (assay: Resistance index, ratio of GR50 for Avena sterilis accession P22 to GR50 for Avena sterilis accession P10S).
Type: functional
`COC(=O)C(C)Oc1ccc(Oc2ccc(Cl)cc2Cl)cc1` (centres undefined) [DICLOFOP-METHYL] was tested, and the Ratio was 8. `CCOC(=O)[C@@H](C)Oc1ccc(Oc2nc3ccc(Cl)cc3o2)cc1` [FENOXAPROP-P-ETHYL] gave a Ratio of 16.

These molecules were tested on Avena sterilis (assay: Resistance index, ratio of GR50 for Avena sterilis accession P04 to GR50 for Avena sterilis accession P10S).
Type: functional
In the case of `COC(=O)C(C)Oc1ccc(Oc2ccc(Cl)cc2Cl)cc1` (centres undefined) [DICLOFOP-METHYL], the Ratio is reported as 28. `CCOC(=O)[C@@H](C)Oc1ccc(Oc2nc3ccc(Cl)cc3o2)cc1` [FENOXAPROP-P-ETHYL] was tested, and the Ratio was 59.

What follows are molecules tested on Avena sterilis (assay: Resistance index, ratio of GR50 for Avena sterilis accession P03 to GR50 for Avena sterilis accession P10S).
Type: functional
`COC(=O)C(C)Oc1ccc(Oc2ccc(Cl)cc2Cl)cc1` (centres undefined) [DICLOFOP-METHYL] was tested, and the Ratio was 26. `CCOC(=O)[C@@H](C)Oc1ccc(Oc2nc3ccc(Cl)cc3o2)cc1` [FENOXAPROP-P-ETHYL] gave a Ratio of 55.

The molecules below were run on Avena sterilis (assay: Resistance index, ratio of GR50 for Avena sterilis accession P21S to GR50 for Avena sterilis accession P10S).
Type: functional
Work on `COC(=O)C(C)Oc1ccc(Oc2ccc(Cl)cc2Cl)cc1` (centres undefined) [DICLOFOP-METHYL] yielded a Ratio of 0.8. `CCOC(=O)[C@@H](C)Oc1ccc(Oc2nc3ccc(Cl)cc3o2)cc1` [FENOXAPROP-P-ETHYL] showed a Ratio of 1.2.

Each molecule was assayed on Avena sterilis (assay: Herbicidal activity against Avena sterilis accession P17 assessed as weed survival at 32 times field recommended herbicide dose).
Type: functional
Molecule `COC(=O)C(C)Oc1ccc(Oc2ccc(Cl)cc2Cl)cc1` (centres undefined) [DICLOFOP-METHYL] has a Survival of 20%. With `CCOC(=O)[C@@H](C)Oc1ccc(Oc2nc3ccc(Cl)cc3o2)cc1` [FENOXAPROP-P-ETHYL] the Survival was 0%.

The molecules below were run on Avena sterilis (assay: Herbicidal activity against Avena sterilis accession P10S assessed as weed survival at 1/8 times field recommended herbicide dose).
Type: functional
For `COC(=O)C(C)Oc1ccc(Oc2ccc(Cl)cc2Cl)cc1` (centres undefined) [DICLOFOP-METHYL], the Survival was 97%. `CCOC(=O)[C@@H](C)Oc1ccc(Oc2nc3ccc(Cl)cc3o2)cc1` [FENOXAPROP-P-ETHYL] was tested, and the Survival was 80%.

Each molecule was assayed on Avena sterilis (assay: Resistance index, ratio of GR50 for Avena sterilis accession P18 to GR50 for Avena sterilis accession P10S).
Type: functional
`COC(=O)C(C)Oc1ccc(Oc2ccc(Cl)cc2Cl)cc1` (centres undefined) [DICLOFOP-METHYL] showed a Ratio of 20. For `CCOC(=O)[C@@H](C)Oc1ccc(Oc2nc3ccc(Cl)cc3o2)cc1` [FENOXAPROP-P-ETHYL], the Ratio was >165.

What follows are molecules tested on Avena sterilis (assay: Resistance index, ratio of GR50 for Avena sterilis accession P07 to GR50 for Avena sterilis accession P10S).
Type: functional
Molecule `COC(=O)C(C)Oc1ccc(Oc2ccc(Cl)cc2Cl)cc1` (centres undefined) [DICLOFOP-METHYL] has a Ratio of 7. For `CCOC(=O)[C@@H](C)Oc1ccc(Oc2nc3ccc(Cl)cc3o2)cc1` [FENOXAPROP-P-ETHYL], the Ratio was >165.

What follows are molecules tested on Avena sterilis (assay: Resistance index, ratio of GR50 for Avena sterilis accession P14 to GR50 for Avena sterilis accession P10S).
Type: functional
`COC(=O)C(C)Oc1ccc(Oc2ccc(Cl)cc2Cl)cc1` (centres undefined) [DICLOFOP-METHYL] showed a Ratio of 22. With `CCOC(=O)[C@@H](C)Oc1ccc(Oc2nc3ccc(Cl)cc3o2)cc1` [FENOXAPROP-P-ETHYL] the Ratio was 10.

What follows are molecules tested on Avena sterilis (assay: Resistance index, ratio of GR50 for Avena sterilis accession P08 to GR50 for Avena sterilis accession P10S).
Type: functional
`COC(=O)C(C)Oc1ccc(Oc2ccc(Cl)cc2Cl)cc1` (centres undefined) [DICLOFOP-METHYL] was tested, and the Ratio was 22. With `CCOC(=O)[C@@H](C)Oc1ccc(Oc2nc3ccc(Cl)cc3o2)cc1` [FENOXAPROP-P-ETHYL] the Ratio was 55.

These molecules were tested on Avena sterilis (assay: Resistance index, ratio of GR50 for Avena sterilis accession P01 to GR50 for Avena sterilis accession P10S).
Type: functional
Molecule `COC(=O)C(C)Oc1ccc(Oc2ccc(Cl)cc2Cl)cc1` (centres undefined) [DICLOFOP-METHYL] has a Ratio of 43. `CCOC(=O)[C@@H](C)Oc1ccc(Oc2nc3ccc(Cl)cc3o2)cc1` [FENOXAPROP-P-ETHYL] gave a Ratio of 38.
